{
  "source": "paper PMC3160846",
  "about": "(PLoS ONE, 2011)",
  "key": {"[1]": {"system": "HONE-1 cells", "test": "Caspase-3/-7 activity imaging, HONE-1", "assay_type": "cell-based, Human", "settings": "HONE-1, 60 h", "protocol": "Caspase-3/-7 activity was analyzed with the MagicRed™ DEVD real-time caspase activity detection kit (catalog number #935, Immunochemistry Technologies LLC, Bloomington, MN). Briefly, cells were cultured in chamber-slides and incubated with test agents for various durations. Cells were then incubated with the Caspase-3/-7 substrate MR-(DEVD2) in culture medium for 1 hour, and then co-incubated with Hoechst 33342 for 15 min. Cells were viewed with a UV-enabled inverted-microscope at an excitation wavelength of 540 nm–560 nm and emission at 610 nm. Experiments were repeated independently at least two times."}, "[2]": {"system": "various human cancer cell lines", "test": "Clonogenic assay, panel of cancer cell lines", "assay_type": "cell-based", "settings": "for IC50: Homo sapiens", "protocol": "(§1) Human lung adenocarcinoma A549 cells and NTUB1 bladder cancer cells were maintained in RPMI supplied with 10% fetal bovine serum. KB-derived MDR1-expressing cell lines (i.e. KB-VIN10 and KB-S15) and NTUB1-dervided MDR1-expressing cell line (i.e. NTU0.017) were maintained in growth medium supplemented with 10 nM vincristine, 15 nM and 17 nM paclitaxel respectively. […] KB-derived MRP1-expressing cell line, KB-7D, was maintained in growth medium supplemented with 7 µM VP-16.\n(§2) Two hundred cells in logarithmic growth phase were seeded in a 6-well plate. The cells were exposed to various concentrations of the test drugs for a three-generation period. At the end of the incubation period, cells were fixed and stained with 50% ethanol containing 0.5% methylene blue for 30 min. The plates were washed five times with water and allowed to air-dry. Colonies were countered manually. The IC50 value resulting from 50% inhibition of cell growth was calculated graphically as a comparison with the growth of the control group. Each value represents the average of at least three independent experiments run in triplicates."}, "[3]": {"biological_target": "T1, FLT3 (Homo sapiens, UniProt P36888)", "T1 construct": "FLT3 kinase catalytic domain (residues Y567∼S993); made in house; host or cells: Sf9 insect cells", "T1 sequence (P36888 567-993)": "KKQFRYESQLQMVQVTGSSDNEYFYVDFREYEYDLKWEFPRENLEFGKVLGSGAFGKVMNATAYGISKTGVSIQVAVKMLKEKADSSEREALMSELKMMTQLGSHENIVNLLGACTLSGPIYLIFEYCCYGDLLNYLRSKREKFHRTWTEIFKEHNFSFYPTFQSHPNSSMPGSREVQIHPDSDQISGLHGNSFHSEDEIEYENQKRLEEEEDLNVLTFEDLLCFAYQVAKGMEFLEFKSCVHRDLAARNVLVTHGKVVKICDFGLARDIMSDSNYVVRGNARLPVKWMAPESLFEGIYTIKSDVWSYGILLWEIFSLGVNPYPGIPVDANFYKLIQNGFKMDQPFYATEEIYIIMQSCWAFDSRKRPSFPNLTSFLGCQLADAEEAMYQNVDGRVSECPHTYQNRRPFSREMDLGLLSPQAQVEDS", "test": "Kinase-Glo inhibition assay, FLT3", "assay_type": "biochemical", "protocol": "FLT3 – GST-tagged FLT3-KDWT containing the FLT3 kinase catalytic domain (residues Y567∼S993) were expressed in Sf9 insect cells. The FLT3WT Kinase-Glo assays were carried out in 96-well plates at 30°C for 4 h with the tested compound.\n(§3) Composition of the reaction buffers used in different kinase inhibitory assays is described in Figure S3.\n75 ng GST-FLT3-KDWT proteins, 25 mM HEPES, pH 7.4, 4 mM MnCl2, 10 mM MgCl2, 2mM DTT, 0.02% Triton X-100, 0.1 mg/ml bovine serum albumin, 25 μM Her2 peptide substrate, 0.5 mM Na3VO4, and 1 μM ATP."}, "[4]": {"biological_target": "T2, VEGFR1 (Homo sapiens, UniProt P17948)", "T2 construct": "GST-tagged VEGFR1 (residues R781-I1338); GST; made in house; host or cells: Sf9 insect cells", "T2 sequence (P17948 781-1338)": "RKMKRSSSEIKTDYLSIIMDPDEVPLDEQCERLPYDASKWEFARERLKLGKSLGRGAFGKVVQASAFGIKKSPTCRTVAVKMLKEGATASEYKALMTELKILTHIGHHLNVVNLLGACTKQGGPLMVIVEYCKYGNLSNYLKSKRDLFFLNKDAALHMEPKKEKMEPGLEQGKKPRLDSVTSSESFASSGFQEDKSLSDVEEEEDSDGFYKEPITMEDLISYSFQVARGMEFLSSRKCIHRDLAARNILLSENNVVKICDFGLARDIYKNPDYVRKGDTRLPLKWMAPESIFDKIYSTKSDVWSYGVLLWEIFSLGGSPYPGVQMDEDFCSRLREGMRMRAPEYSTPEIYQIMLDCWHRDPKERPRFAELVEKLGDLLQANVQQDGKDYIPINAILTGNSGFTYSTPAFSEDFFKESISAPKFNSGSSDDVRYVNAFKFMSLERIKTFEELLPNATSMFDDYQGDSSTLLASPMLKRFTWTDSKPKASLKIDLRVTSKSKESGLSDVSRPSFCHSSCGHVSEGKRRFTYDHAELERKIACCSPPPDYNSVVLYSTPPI", "test": "Kinase inhibition assay, VEGFR1", "assay_type": "biochemical", "protocol": "VEGFR1/2 – The recombinant GST-tagged VEGFR1 (residues R781-I1338) or VEGFR2 (residues V789-V1356) containing kinase domain were expressed in Sf9 insect cells. The kinase assay was carried out in 96-well plates with the tested compound at 30°C for 120 min.\nas §3\n25 mM HEPES pH 7.4, 10 mM MgCl2, 4mM MnCl2, 0.5mM Na3VO4, 2 mM DTT, 0.02% Triton X100, 0.01% BSA, 1 mM ATP, 2 mM polyGlu4:Tyr peptide, 50~100 ng recombinant VEGFR1 or VEGFR2."}, "[5]": {"system": "KB-7D cells", "test": "Clonogenic assay, KB-7D", "assay_type": "cell-based", "settings": "Homo sapiens, KB7D, VP-16 resistant, MRP1 ↑, read-out: IC50, anti-proliferative activity", "protocol": "as §1, §2"}, "[6]": {"test": "Pharmacokinetic study in rats", "assay_type": "in vivo", "settings": "5 mg/kg i.v.", "protocol": "Male Sprague-Dawley rats weighing 300–400 g each (8–12 weeks old) were obtained from BioLASCO, Taiwan Co., Ltd., Ilan, Taiwan. Animals were surgically prepared with a jugular-vein cannula one day prior to dosing and fasted overnight (∼18–20 h) prior to dosing. Water was available ad libitum throughout the experiment. Single 5 mg/kg dose of BPR1K653, as a DMA/PEG (20/80, v/v) solution, was separately administered to groups of 3 rats each intravenously by a bolus injection via the jugular-vein cannula. At 0 (prior to dosing), 2, 5, 15 and 30 min, and at 1, 2, 4, 6, 8 and 24 h after dosing, a blood sample (0.15 mL) was collected from each animal via the jugular-vein cannula and stored in ice (0–4°C). Plasma was separated from the blood by centrifugation (14,000 g for 15 min at 4°C in a Beckman Model Allegra™ 6R centrifuge) and stored in a freezer (−20°C). All samples were analyzed for the parent drug by LC-MS/MS. LC/MS/MS conditions: The chromatographic system consisted of an Agilent 1200 series LC system and an Agilent ZORBAX Eclipse XDB-C8 column (5 µm, 3.0×150 mm) was connected to a MDS Sciex API3000 tandem mass spectrometer, which was equipped with a Turbo V™ ESI in the positive scanning mode at 600°C. Data was acquired via the multiple reactions monitoring (MRM) system. The MS/MS ion transitions were monitored at m/z of 541.4/106.4 for BPR1K653. The collision energy of 58.0 V was used for the analyst, BPR1K653. A gradient HPLC method was employed for the separation. Mobile phase A consisted of water containing 0.1% formic acid, and mobile phase B consisted of acetonitrile. The gradient profile was shown as follows (min/%B): 0.0–1.2/5, 1.3–3.9/95, 4.0–5.0/5. The flow rate was set to be 1.5 mL/min. The auto-sampler was programmed to inject 15 µL sample aliquots in every 5 min. The retention time of BPR1K653 was 2.39 min. Plasma concentration data were analyzed with non-compartmental method."}},
  "note": "Several values for one entry are separate records, joined by “and”; a condition that tells them apart may be missing. Equal entries are not always repeated. Where two headings read alike, the source gives them in different places.",
  "data": [
    {"compound": "CN(C)Cc1ccccc1NC(=O)Nc1ccc(CCNc2ncnc3oc(-c4ccccc4)c(Cl)c23)cc1", "note": "[BPR1K653]", "values": [
      {"measurement": "apoptosis, caspase-3/-7 activity", "setting": "[1]", "result": "induced apoptosis"},
      {"measurement": "IC50", "setting": "[2]; A549, HONE-1, OECM-1, KB, HT29, NTUB1, MV4-11, IM9, read-out: IC50 against various types of cancer cells", "result": "< 500", "unit": "nM"},
      {"measurement": "IC50", "setting": "[2]; read-out: IC50 in all tested p53-wildtype/-negative/-mutant cancer cell lines", "result": "< 20", "unit": "nM"},
      {"measurement": "effect of verapamil treatment on sensitivity", "setting": "[2]; MDR-negative and MDR1-expressing cancer cells, verapamil 10 µM, data not shown", "result": "could not further increase the sensitivity to BPR1K653"},
      {"measurement": "IC50", "setting": "[3]", "result": "> 10000", "unit": "nM"},
      {"measurement": "IC50", "setting": "[4]", "result": "> 10000", "unit": "nM"},
      {"measurement": "IC50", "setting": "[5]", "result": 19, "unit": "nM"},
      {"measurement": "maximum plasma concentration above the in vitro kinase inhibition IC50 of Aurora-A", "setting": "[6]", "result": "more than 80 fold"},
      {"measurement": "maximum plasma concentration above the in vitro kinase inhibition IC50 of Aurora-B", "setting": "[6]", "result": "> 200", "unit": "fold"},
      {"measurement": "maximum plasma concentration", "setting": "[6]; at 2 min after dosing, 5 mg/kg", "result": "10 µM and 5463 ng/mL"},
      {"measurement": "AUC(0-inf)", "setting": "[6]; male, Sprague-Dawley, rat, plasma, iv, read-out: Area under the curve (AUC(0-inf))", "result": 1750, "unit": "ng·h/mL"},
      {"measurement": "half-life", "setting": "[6]; male, Sprague-Dawley, rat, plasma, iv, read-out: Plasma half life (t1/2) (converted)", "result": 3.9, "unit": "h"},
      {"measurement": "clearance", "setting": "[6]; male, Sprague-Dawley, rat, plasma, iv, read-out: Total body clearance (CL)", "result": 49.3, "unit": "mL/min/kg"},
      {"measurement": "Vd", "setting": "[6]; male, Sprague-Dawley, rat, plasma, iv, read-out: Volume of distribution at the steady state (Vss)", "result": "10.6 ± 5.1", "unit": "L/kg"},
      {"measurement": "concentration at 24 h", "setting": "[6]; male, Sprague-Dawley, rat, plasma, iv, 5 mg/kg, read-out: estimated plasma concentration 24 h after dosing", "result": "3.9 nM and 2.1 ng/mL"}
    ]}
  ]
}
